Measurements reported in patent publication US20080318957A1, “POLYBASIC BACTERIAL EFFLUX PUMP INHIBITORS AND THERAPEUTIC USES THEREOF” (priority 2007, published 2008).

Test system: strain of P. aeruginosa, PAM1723, overexpressing the MexAB-OprM efflux pump
Test: checkerboard assay, levofloxacin potentiating activity (broth microdilution)
Type: cell-based
Conditions: lowest inhibitor concentration giving antibacterial activity with levofloxacin at 1/32 of its MIC; MHB, 20 h, 35° C.
Method: All EPI compounds were readily soluble in water and stock solutions were prepared at a final concentration of 10 mg/ml. Stock solutions were further diluted, according to the needs of the particular assay, in Mueller Hinton Broth (MHB). Stock solution was stored at −80° C.
The checkerboard assay was performed in microtiter plates. […] EPIs were diluted in the y-axis, each row containing a single concentration of an EPI. The result of these manipulations was that each well of the microtiter plate contained a unique combination of concentrations of the two agents. The assay was performed in MHB with a final bacterial inoculum of 5 times 10^5 CFU/ml (from an early-log phase culture). Microtiter plates were incubated during 20 h at 35° C. and were read using a microtiterplate reader (Molecular Devices) at 650 nm as well as visual observation using a microtiter plate-reading mirror.

Compound	MPC32 (Minimum Potentiating Concentration) [µg/mL]
NCCN(CCN)C(=O)CC[C@H](N)C(=O)N[C@H](C(=O)Nc1cnc2ccccc2c1)[C@H](O)c1ccc(C(F)(F)F)cc1 [Compound 3, 3-[(1S)-3-[bis(2-azaniumylethyl)carbamoyl]-1-{[(1S,2R)-1-carbamoyl-2-hydroxy-2-[4-(trifluoromethyl)phenyl]ethyl]carbamoyl]propan-1-aminium]quinolin-1-ium tetrachloride]	>10
NCCN(CCN)C(=O)C[C@H](N)C(=O)N[C@@H](CCc1ccccc1)C(=O)Nc1cnc2ccccc2c1 [Compound 2]	5
NCCN(CCN)C(=O)CC[C@H](N)C(=O)N/C(=C/c1ccc(C(F)(F)F)cc1)C(=O)Nc1cnc2ccccc2c1 [Compound 4, 3-[(1S)-3-[bis(2-azaniumylethyl)carbamoyl]-1-{[(1E)-1-carbamoyl-2-[4-(trifluoromethyl)phenyl]eth-1-en-1-yl]carbamoyl}propan-1-aminium]quinolin-1-ium tetrachloride]	2.5
NCCN(CCN)C(=O)CC[C@H](N)C(=O)N[C@H](Cc1ccc(C(F)(F)F)cc1)C(=O)Nc1cnc2ccccc2c1 [Compound 1, 3-[(1S)-3-[bis(2-azaniumylethyl)carbamoyl]-1-{[(1R)-1-carbamoyl-2-[4-(trifluoromethyl)phenyl]ethyl]carbamoyl}propan-1-aminium]quinolin-1-ium tetrachloride]	0.6
CN(C(=O)[C@@H](N)CCC(=O)N(CCN)CCN)[C@@H](Cc1ccc(C(F)(F)F)cc1)C(=O)Nc1cnc2ccccc2c1 [Compound 5, 3-[(1S)-3-[bis(2-azaniumylethyl)carbamoyl]-1-{[(1S)-1-carbamoyl-2-[4-(trifluoromethyl)phenyl]ethyl](methyl)carbamoyl}propan-1-aminium]quinolin-1-ium tetrachloride]	>10
